In US20250332300A1 (priority 2024, published 2025):
pIC50, pKd: −log10 of the molar value. Where a name gives a salt, the structure may show the parent alone. Read-outs that look alike come from different tables or passages of the source. Positions of bridges follow the written chain, without caps; N, C: chain ends. Non-standard residues stand in square brackets, D forms with d. Residues, ends and D or L forms follow the SMILES beside them. Trp(5-OH) = N[C@@H](Cc1c[nH]c2ccc(O)cc12)C(=O)O; NMePhe(4-F) = CN[C@@H](Cc1ccc(F)cc1)C(=O)O; NMehPhe = CN[C@@H](CCc1ccccc1)C(=O)O; Aad = N[C@@H](CCCC(=O)O)C(=O)O; Gly(cPr) = N[C@H](C(=O)O)C1CC1; Aoc(2) = CCCCCC[C@H](N)C(=O)O; NMehCys = CN[C@@H](CCS)C(=O)O; NMeK = CN[C@@H](CCCCN)C(=O)O; NMeDap = CN[C@@H](CN)C(=O)O; NMeC = CN[C@@H](CS)C(=O)O; NMeS = CN[C@@H](CO)C(=O)O; hCys = N[C@@H](CCS)C(=O)O

Key:
Type in all cases: binding
[1] = target: T1, human HER2 (23-652) (Homo sapiens, UniProt P04626); assay: TR-FRET competition assay for peptide potency, human HER2; design: towards human HER2 (23-652) and mouse HER2 (23-653); made in house; host or cells: mammalian cells
[2] = target: T1, human HER2 (23-652); assay: Surface plasmon resonance (SPR) for assessment of peptide affinity, human HER2; design: towards human HER2 (23-652) and mouse HER2 (23-653); made in house; conditions: SPR, human HER2 extracellular domain, 25° C., 1:1 binding model; read-out: huHER2-SPR-ONC KD
How it was run: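 Binding kinetics fitted from sensorgrams with 280 s peptide association then 3000 s dissociation (30 uL/min), using HER2 (23-652) either directly immobilized (SA/CM5) or anti-Fc-captured; 3 M magnesium chloride used for regeneration.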

[3] = target: T2, mouse HER2 (23-653) (Mus musculus, UniProt P70424); assay: Surface plasmon resonance (SPR) for assessment of peptide affinity, mouse HER2; design: mouse HER2 (23-653) using a Cy5 labeled peptide as a probe; made in house; conditions: SPR, mouse HER2 extracellular domain, 25° C., 1:1 binding model; read-out: moHER2-SPR-ONC KD
Excerpt: Each protein was immobilized either onto a SA sensorchip (Cytiva, BR-1005-31) or CM5 sensorchip (Cytiva, BR-1005-30) to a density of 800-2000 RU.

[4] = target: T2, mouse HER2 (23-653); assay: TR-FRET competition assay for peptide potency, mouse HER2; design: mouse HER2 (23-653) using a Cy5 labeled peptide as a probe; made in house; host or cells: mammalian cells; conditions: TR-FRET competition with Cy5 labeled peptide probe, 0.1 nM mouse HER2, 24 h incubation; read-out: moHER2 TR-FRET IC50

| SMILES | pIC50 ([1]; read-out: huHER2 TR-FRET IC50) | pKd [2] | pKd [3] | pIC50 [4] | pIC50 ([1]; value in parentheses (**): recalculated after further repetition, read-out: huHER2 TR-FRET IC50, recalculated value achieved after further repetition) |
| --- | --- | --- | --- | --- | --- |
| CCCCCC[C@@H]1NC(=O)[C@H](Cc2c[nH]c3ccc(O)cc23)NC(=O)[C@H](CCCCNC(C)=O)N(C)C(=O)[C@H](CCc2ccccc2)N(C)C(=O)[C@H](CO)NC(=O)[C@H](Cc2ccc(O)cc2)NC(=O)[C@@H](NC(C)=O)CCCC(=O)NC[C@@H](C(=O)N(C)[C@@H](Cc2ccc(F)cc2)C(N)=O)N(C)C(=O)[C@H](C2CC2)NC1=O [Example A18, (3S,6S,9S,12S,15S,18S,21S,24S,27S)-27-acetamido-15-(4-acetamidobutyl)-N-((S)-1-amino-3-(4-fluorophenyl)-1-oxopropan-2-yl)-6-cyclopropyl-9-hexyl-12-((5-hydroxy-1H-indol-3-yl)methyl)-24-(4-hydroxybenzyl)-21-(hydroxymethyl)-N,4,16,19-tetramethyl-5,8,11,14,17,20,23,26,31-nonaoxo-18-phenethyl-1,4,7,10,13,16,19,22,25-nonaazacyclohentriacontane-3-carboxamide] (Ac-[Aad]YS[NMehPhe][NMeK](Ac)[Trp(5-OH)][Aoc(2)][Gly(cPr)][NMeDap][NMePhe(4-F)]-NH2; lactam 1-9) | < 6.00 | < 5.22 | < 5.22 | < 6.00 |  |
| CC(=O)N[C@H]1CC(=O)NC[C@@H](C(=O)N(C)[C@@H](Cc2ccc(F)cc2)C(N)=O)N(C)C(=O)[C@H](C2CC2)NC(=O)[C@H](Cc2c[nH]c3ccccc23)NC(=O)[C@H](Cc2c[nH]c3ccc(O)cc23)NC(=O)[C@H](CO)N(C)C(=O)[C@H](CCc2ccccc2)N(C)C(=O)[C@H](CO)NC(=O)[C@H](Cc2ccc(O)cc2)NC1=O [Example A28, (3S,6S,9S,12S,15S,18S,21S,24S,27S)-9-((1H-indol-3-yl)methyl)-27-acetamido-N-((S)-1-amino-3-(4-fluorophenyl)-1-oxopropan-2-yl)-6-cyclopropyl-12-((5-hydroxy-1H-indol-3-yl)methyl)-24-(4-hydroxybenzyl)-15,21-bis(hydroxymethyl)-N,4,16,19-tetramethyl-5,8,11,14,17,20,23,26,29-nonaoxo-18-phenethyl-1,4,7,10,13,16,19,22,25-nonaazacyclononacosane-3-carboxamide] (Ac-DYS[NMehPhe][NMeS][Trp(5-OH)]W[Gly(cPr)][NMeDap][NMePhe(4-F)]-NH2; lactam 1-9) | 6.65 | 6.51 | 6.38 | 6.38 |  |
| CC(=O)N[C@H]1CCCC(=O)NC[C@@H](C(=O)N(C)[C@@H](Cc2ccc(F)cc2)C(=O)N[C@@H](CCCCNC(=O)CN2CCN(CC(=O)O)CCN(CC(=O)O)CCN(CC(=O)O)CC2)C(N)=O)N(C)C(=O)[C@H](C2CC2)NC(=O)[C@H](Cc2c[nH]c3ccccc23)NC(=O)[C@H](Cc2c[nH]c3ccc(O)cc23)NC(=O)[C@H](CCCCNC(=O)CO)N(C)C(=O)[C@H](CCc2ccccc2)N(C)C(=O)[C@H](CO)NC(=O)[C@H](Cc2ccc(O)cc2)NC1=O [Example B5] | > 10.00 | > 10.00 | 10.00 | 9.70 |  |
| CN1C(=O)[C@H](CO)NC(=O)[C@H](Cc2ccc(O)cc2)NC(=O)[C@@H](N)CCC(=O)NC[C@@H](C(=O)N(C)[C@@H](Cc2ccc(F)cc2)C(N)=O)N(C)C(=O)[C@H](C2CC2)NC(=O)[C@H](Cc2c[nH]c3ccccc23)NC(=O)[C@H](Cc2c[nH]c3ccc(O)cc23)NC(=O)[C@H](CO)N(C)C(=O)[C@@H]1CCc1ccccc1 [Example A35, (3S,6S,9S,12S,15S,18S,21S,24S,27S)-9-((1H-indol-3-yl)methyl)-27-amino-N—((S)-1-amino-3-(4-fluorophenyl)-1-oxopropan-2-yl)-6-cyclopropyl-12-((5-hydroxy-1H-indol-3-yl)methyl)-24-(4-hydroxybenzyl)-15,21-bis(hydroxymethyl)-N,4,16,19-tetramethyl-5,8,11,14,17,20,23,26,30-nonaoxo-18-phenethyl-1,4,7,10,13,16,19,22,25-nonaazacyclotriacontane-3-carboxamide TFA 5 salt] | 7.28 | 7.43 | 7.18 | 6.91 |  |
| CN1C(=O)[C@H](CO)NC(=O)[C@H](Cc2ccc(O)cc2)NC(=O)[C@@H](N)CCSSC[C@@H](C(=O)N(C)[C@@H](Cc2ccc(F)cc2)C(N)=O)N(C)C(=O)[C@H](C2CC2)NC(=O)[C@H](Cc2c[nH]c3ccccc23)NC(=O)[C@H](Cc2c[nH]c3ccc(O)cc23)NC(=O)[C@H](CO)N(C)C(=O)[C@@H]1CCc1ccccc1 [Example A57, (4R,7S,10S,13S,16S,19S,22S,25S,28S)-10-((1H-indol-3-yl)methyl)-28-amino-N-((S)-1-amino-3-(4-fluorophenyl)-1-oxopropan-2-y1)-7-cyclopropyl-13-((5-hydroxy-1H-indol-3-y1)methyl)-25-(4-hydroxybenzyl)-16,22-bis(hydroxymethyl)-N,5,17,20-tetramethyl-6,9,12,15,18,21,24,27-octaoxo-19-phenethyl-1,2-dithia-5,8,11,14,17,20,23,26-octaazacyclotriacontane-4-carboxamide TFA salt] (H-[hCys]YS[NMehPhe][NMeS][Trp(5-OH)]W[Gly(cPr)][NMeC][NMePhe(4-F)]-NH2; disulfide 1-9) | < 6.00 | 5.70 | 5.84 | < 6.00 |  |
| CC(=O)NCCCC[C@H]1C(=O)N[C@@H](Cc2c[nH]c3ccc(O)cc23)C(=O)N[C@@H](Cc2c[nH]c3ccccc23)C(=O)N[C@@H](C2CC2)C(=O)N(C)[C@H](C(=O)N(C)[C@@H](Cc2ccc(F)cc2)C(N)=O)CCSSCC[C@H](N)C(=O)N[C@@H](Cc2ccc(O)cc2)C(=O)N[C@@H](CO)C(=O)N(C)[C@@H](CCc2ccccc2)C(=O)N1C [Example A55, (5S,8S,11S,14S,17S,20S,23S,26S,29S)-11-((1H-indol-3-yl)methyl)-17-(4-acetamidobutyl)-29-amino-N-((S)-1-amino-3-(4-fluorophenyl)-1-oxopropan-2-y1)-8-cyclopropyl-14-((5-hydroxy-1H-indol-3-yl)methyl)-26-(4-hydroxybenzyl)-23-(hydroxymethyl)-N,6,18,21-tetramethyl-7,10,13,16,19,22,25,28-octaoxo-20-phenethyl-1,2-dithia-6,9,12,15,18,21,24,27-octaazacyclohentriacontane-5-carboxamide TFA salt] (H-[hCys]YS[NMehPhe][NMeK](Ac)[Trp(5-OH)]W[Gly(cPr)][NMehCys][NMePhe(4-F)]-NH2; disulfide 1-9) | 7.01 | 6.75 | 6.83 | 6.54 |  |
| CC(=O)NCCCC[C@H]1C(=O)N[C@@H](Cc2c[nH]c3ccc(O)cc23)C(=O)N[C@@H](Cc2c[nH]c3ccccc23)C(=O)N[C@@H]([C@H](C)O)C(=O)N(C)[C@H](C(=O)N(C)[C@@H](Cc2ccc(F)cc2)C(=O)N[C@@H](CCCCNC(=O)N2CCN(CC(=O)O)CC2)C(N)=O)CNC(=O)CC[C@H](NC(=O)CCNC(=O)CN2CCN(CC(=O)O)CCN(CC(=O)O)CCN(CC(=O)O)CC2)C(=O)N[C@@H](Cc2ccc(O)cc2)C(=O)N[C@@H](CO)C(=O)N(C)[C@@H](CCc2ccccc2)C(=O)N1C [Example C28] |  | 9.22 | 8.51 | 8.36 | 8.89 |
| CC(=O)NCCCC[C@H]1C(=O)N[C@@H](Cc2c[nH]c3ccc(O)cc23)C(=O)N[C@@H](Cc2c[nH]c3ccccc23)C(=O)N[C@@H](C2CC2)C(=O)N(C)[C@H](C(=O)N(C)[C@@H](Cc2ccc(F)cc2)C(N)=O)CNC(=O)CCC[C@H](NC(C)=O)C(=O)N[C@@H](Cc2ccc(O)cc2)C(=O)N[C@@H](CO)C(=O)N(C)[C@@H](CCc2ccccc2)C(=O)N1C [Example A5, (3S,6S,9S,12S,15S,18S,21S,24S,27S)-9-((1H-indol-3-yl)methyl)-27-acetamido-15-(4-acetamidobutyl)-N-((S)-1-amino-3-(4-fluorophenyl)-1-oxopropan-2-yl)-6-cyclopropyl-12-((5-hydroxy-1H-indol-3-yl)methyl)-24-(4-hydroxybenzyl)-21-(hydroxymethyl)-N,4,16,19-tetramethyl-5,8,11,14,17,20,23,26,31-nonaoxo-18-phenethyl-1,4,7,10,13,16,19,22,25-nonaazacyclohentriacontane-3-carboxamide] (Ac-[Aad]YS[NMehPhe][NMeK](Ac)[Trp(5-OH)]W[Gly(cPr)][NMeDap][NMePhe(4-F)]-NH2; lactam 1-9) | 9.40 | 9.30 | 9.22 | 9.10 |  |
